# “And” between values parts separate entries of the source, which are not always exact repeats. Identical values can stand only once.
# What was measured:
# Berkeley SS mouse = Berkeley SS mouse model of SCD, 7 days in chow; type: in vivo; details: 1000 ppm in chow
# Source text: Targeted gene deletions and a human transgene in the Berkeley SS mouse model result in mice that express human HgbS almost exclusively (Pászty C. Transgenic and gene knock-out mouse models of sickle cell anemia and the thalassemias. Curr Opin Hematol. 1997 March; 4(2):88-93) and mimic the genetic, hematologic, and histopathologic features of SCD in humans. These include irreversibly sickled RBCs, anemia, and multi-organ pathology.
# The effects of Compound 1 on Hgb affinity for oxygen, percentage of sickled cells, and/or Hgb were evaluated in the Berkley SS mouse. Two studies were conducted where mice received 0 or 1000 ppm Compound 1 ad libitum in mouse chow for 7 days. Blood was drawn on Day 7 and analyzed under hypoxic conditions. Red cell parameters were measured by ADVIA.
# wt-PKR [1] = target: T1, wt-PKR (Homo sapiens, UniProt P30613); assay: Enzyme assay: activation (rate of ATP formation) by different concentrations, wt-PKR; type: biochemical; details: PEP at or below Km
# healthy volunteers [2] = assay: Phase 1 multiple ascending dose (MAD) cohorts, 14 days; type: in vivo, human
# Source text: (§1) This is a first-in-human (FIH), Phase 1 study of Compound 1 that will characterize the safety, PK, and PD of Compound 1 after a single dose and after repeated dosing first in healthy adult volunteers and then in adolescents or adults with sickle cell disease. Initially, a dose range of Compound 1 in single ascending dose (SAD) escalation cohorts will be explored in healthy subjects. Enrollment of healthy subjects into 2-week multiple ascending dose (MAD) escalation cohorts will be initiated once the safety and PK from at least two SAD cohorts is available to inform the doses for the 2-week MAD portion of the study. The MAD cohorts will then run in parallel to the single dose cohorts. A single dose cohort is planned to understand food effects (FE) on the PK of Compound 1. […] Multiple dose studies in SCD subjects will then be initiated upon completion of MAD studies in healthy volunteers. Compound 1 will be administered in 25 mg and 100 mg tablets delivered orally.
# (§2) Four healthy SAD cohorts were evaluated at doses of 200, 400, 700, and 1000 mg, and four healthy MAD cohorts received 200 to 600 mg total daily doses for 14 days at QD or BID dosing (100 mg BID, 200 mg BID, 300 mg BID, and 400 mg QD). In the food effect (FE) cohort, 10 healthy subjects received 200 mg of Compound 1 QD with and without food.
# In the MAD cohorts, the subjects' blood 2,3-DPG levels were measured periodically after dosing by a qualified LC-MS/MS method for the quantitation of 2,3-DPG in blood. The maximum decrease in 2,3-DPG on Day 14 was 55% from baseline (median). […] Table 16 reports the median percentage change in 2,3-DPG blood levels, relative to baseline, measured over time after the first dose on days 1 and 14 in healthy volunteers who received daily doses of Compound 1 (100 mg BID, 200 mg BID, or 300 mg BID) or placebo for 14 days. Accordingly, the median reduction in the concentration of 2,3-DPG, relative to baseline, was at least about 25% at all dose levels tested 24 hours after administration of the first dose on day 1 and at least about 40% at all dose levels tested 24 hours after administration of the first dose on day 14.
# In the MAD cohorts, the subjects' P50 (PO2 at 50% hemoglobin saturation) were determined on day 14. P50 values measured after 14 days of twice daily dosing were reduced at all dose levels tested (median reduction ranged from −3-5 mmHg). Table 17 reports the mean absolute change in P50, relative to baseline, measured on day 14 in healthy volunteers who received daily doses of Compound 1 (100 mg BID, 200 mg BID, or 300 mg BID) or placebo for 14 days.
# In the MAD cohorts, the subjects' blood ATP levels were measured on day 14 by a qualified LC-MS/MS method for the quantitation of ATP in blood. […] Table 18 reports the median percentage change in blood ATP levels, relative to baseline, measured over time after the first dose on day 14 in healthy volunteers who received daily doses of Compound 1 (100 mg BID, or 200 mg BID) or placebo for 14 days.
# (§3) The following procedures are employed for the analysis of ATP and 2,3-DPG in human whole blood K2EDTA using a protein precipitation extraction procedure and analysis by LC-MS/MS.
# PKR-R510Q [3] = target: T2, PKR-R510Q (Homo sapiens, UniProt P30613, R510Q); assay: Enzyme assay: activation (rate of ATP formation) by different concentrations, PKR-R510Q; type: biochemical; details: PEP at or below Km
# Balb/c mice = assay: PK/PD studies in wild type Balb/c mice, oral gavage QD×7; type: in vivo
# Experimental: Two pharmacokinetic (PK)/phamacodynamic (PD) studies were conducted in Balb/c mice that were administered Compound 1 once daily by oral gavage (formulated in 10% Cremophor EL/10% PG/80% DI water) for 7 days (QD×7) at doses of 0 (vehicle), 3.75, 7.5, 15, 30, 60 mg/kg (Study 1); 0 (vehicle), 7.5, 15, 30, 60, 120, or 240 mg/kg (Study 2). On the 7th day, whole blood was collected 24 hours after dosing and snap frozen. Samples were later thawed and analyzed by LC/MS for 2,3-DPG and ATP levels.
# PKR-R510Q [4] = target: T2, PKR-R510Q; assay: Enzyme assay: effect on Vmax and PEP Km, PKR-R510Q; type: biochemical; details: 2 μM Compound 1; for Vmax: PKR R510Q, normalized to 1.00 relative to other values in the row
# Experimental: (§4) Tests were conducted in the presence and absence of fructose-1,6-bisphosphate (FBP), a known allosteric activator of PKR.
# healthy volunteers [5] = assay: Phase 1 single ascending dose (SAD) cohorts; type: in vivo, human
# Source text: as §1, §2
# In the SAD cohorts, the subjects' blood 2,3-DPG levels were measured periodically after dosing by a qualified LC-MS/MS method for the quantitation of 2,3-DPG in blood. Decreased 2,3-DPG blood levels were observed 6 hours following a single dose of Compound 1 at all dose levels (earlier timepoints were not collected). Maximum decreases in 2,3-DPG levels generally occurred ˜24 hours after the first dose with the reduction sustained ˜48-72 hr postdose. Table 14 reports the median percentage change in 2,3-DPG blood levels, relative to baseline, measured over time in healthy volunteers after a single dose of Compound 1 (200 mg, 400 mg, 700 mg, or 1000 mg) or placebo. Accordingly, the median reduction in the concentration of 2,3-DPG, relative to baseline, was at least about 30% at all dose levels tested 24 hours after administration of the single dose.
# In the SAD cohorts, the subjects' P50 (PO2 at 50% hemoglobin saturation) were determined 24-hours post-dose. P50 measured 24 hours after a single dose of Compound 1 were reduced at all dose levels tested (median reduction ranged from ˜3-5 mmHg). Table 15 reports the mean absolute change in P50, relative to baseline, measured 24 hours after a single dose of Compound 1 (200 mg, 400 mg, 700 mg, or 1000 mg) or placebo in healthy volunteers.
# as §3
# wt-PKR [6] = target: T1, wt-PKR; assay: Enzyme assay: effect on Vmax and PEP Km, wt-PKR; type: biochemical; details: 2 μM Compound 1; for Vmax: WT-PKR, normalized to 1.00 relative to other values in the row
# Experimental: as §4
# wt-PKR [7] = target: T1, wt-PKR; assay: PKR activation in mature human erythrocytes ex vivo (Biovision Pyruvate Kinase Assay); type: cell-based; parameters: evaluated in purified RBCs purchased from Research Blood Components; host or cells: purified mature human erythrocytes from donors; details: human RBCs, 3 hr treatment
# Experimental: (§5) The activation of wt-PKR by Compound 1 in mature human erythrocytes ex vivo was evaluated in purified RBCs purchased from Research Blood Components. Cells treated with Compound 1 for 3 hr in glucose-containing media were washed, lysed, and assayed using a Biovision Pyruvate Kinase Assay (K709-100). The assay was repeated multiple times to account for donor-to-donor variability and the relatively narrow dynamic range.
# PKR = target: T3, PKR (Mus musculus, UniProt P53657); assay: PKR activation in mouse red blood cells; type: cell-based; details: mouse RBCs
# T3 construct: Mouse RBCs were isolated fresh from whole blood using a Ficoll gradient; endogenous in cells; host or cells: freshly isolated mouse red blood cells
# Experimental: as §5
# Mouse RBCs were isolated fresh from whole blood using a Ficoll gradient and assayed with methods similar to those used in the human RBCs assays.
# PKR-R510Q [8] = target: T2, PKR-R510Q; assay: Luminescence Assay (Kinase Glo Plus), PKR(R510Q); type: biochemical; details: 100 μM PEP, 100 μM ADP, read-out: AC50 (PKRR510Q)
# Experimental: For each tested compound, the ability to activate PKR was determined using the following Luminescence Assay. The effect of phosphorylation of adenosine-5′-diphosphate (ADP) by PKR is determined by the Kinase Glo Plus Assay (Promega) in the presence or absence of FBP (D-fructose-1,6-diphosphate; BOC Sciences, CAS: 81028-91-3) as follows. Unless otherwise indicated, all reagents are purchased from Sigma-Aldrich. All reagents are prepared in buffer containing 50 mM Tris-HCl, 100 mM KCl, 5 mM MgCl2, and 0.01% Triton X100, 0.03% BSA, and 1 mM DTT. Enzyme and PEP (phosphoenolpyruvate) are added at 2× to all wells of an assay-ready plate containing serial dilutions of test compounds or DMSO vehicle. Final enzyme concentrations for PKR(wt), PKR(R510Q), and PKR(G332S) are 0.8 nM, 0.8 nM, and 10 nM respectively. Final PEP concentration is 100 μM. The Enzyme/PEP mixture is incubated with compounds for 30 minutes at RT before the assay is initiated with the addition of 2×ADP and KinaseGloPlus. Final concentration of ADP is 100 μM. […] For assays containing FBP, that reagent is added at 30 μM upon reaction initiation. Reactions are allowed to progress for 45 minutes at RT until luminescence is recorded by the BMG PHERAstar FS Multilabel Reader. The compound is tested in triplicate at concentrations ranging from 42.5 μM to 2.2 nM in 0.83% DMSO. […]
# [9] = MAD, all doses and timepoints, N = 36
# [10] = SAD, all doses and timepoints, N = 24
# T3 sequence (P53657 whole entry): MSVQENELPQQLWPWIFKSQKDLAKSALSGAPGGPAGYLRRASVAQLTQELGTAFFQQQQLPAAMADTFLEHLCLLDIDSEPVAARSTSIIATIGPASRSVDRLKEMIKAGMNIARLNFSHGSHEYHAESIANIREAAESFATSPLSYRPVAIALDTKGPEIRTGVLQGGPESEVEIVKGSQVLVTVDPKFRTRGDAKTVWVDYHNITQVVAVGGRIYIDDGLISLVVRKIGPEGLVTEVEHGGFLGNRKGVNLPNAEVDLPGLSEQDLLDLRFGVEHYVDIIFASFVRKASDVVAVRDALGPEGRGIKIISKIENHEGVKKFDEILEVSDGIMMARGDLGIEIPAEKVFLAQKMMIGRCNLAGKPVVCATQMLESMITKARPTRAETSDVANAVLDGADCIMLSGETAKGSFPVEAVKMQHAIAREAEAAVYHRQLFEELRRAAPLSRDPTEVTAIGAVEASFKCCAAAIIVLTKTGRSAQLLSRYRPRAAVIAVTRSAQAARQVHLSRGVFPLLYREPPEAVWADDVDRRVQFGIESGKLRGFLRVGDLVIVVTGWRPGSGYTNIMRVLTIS
# T1 sequence (P30613 whole entry): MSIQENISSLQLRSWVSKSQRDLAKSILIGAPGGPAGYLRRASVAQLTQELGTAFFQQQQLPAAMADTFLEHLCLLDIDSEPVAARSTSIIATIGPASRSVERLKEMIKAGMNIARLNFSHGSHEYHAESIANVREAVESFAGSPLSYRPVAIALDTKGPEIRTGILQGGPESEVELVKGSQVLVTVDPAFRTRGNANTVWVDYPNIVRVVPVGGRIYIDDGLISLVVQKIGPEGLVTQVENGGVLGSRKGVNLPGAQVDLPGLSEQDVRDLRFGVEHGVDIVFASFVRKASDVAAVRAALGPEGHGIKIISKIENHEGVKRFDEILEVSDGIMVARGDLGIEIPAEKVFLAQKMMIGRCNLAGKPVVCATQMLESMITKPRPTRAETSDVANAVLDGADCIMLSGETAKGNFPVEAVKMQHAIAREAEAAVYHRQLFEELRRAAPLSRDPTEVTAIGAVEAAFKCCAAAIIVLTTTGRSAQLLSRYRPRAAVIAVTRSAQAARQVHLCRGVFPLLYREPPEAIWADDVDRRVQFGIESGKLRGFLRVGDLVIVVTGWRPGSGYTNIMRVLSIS
# T2 sequence (P30613 whole entry R510Q): as the sequence (P30613 whole entry) above, with R510Q counted along it
structure (smiles),measurement,setting,value
"O=C([C@H](CO)c1ccccc1)N1CC2=C(C1)CN(S(=O)(=O)c1cnc3c(c1)OCCO3)C2 (single isomer, unassigned) [Compound 1]",Level of reticulocytes,Berkeley SS mouse,reduced
same,Oxygen affinity to Hgb under hypoxic conditions,Berkeley SS mouse,increased
same,Percentage of RBCs that sickled at low oxygen pressures,Berkeley SS mouse,decreased
same,Time to sickle,Berkeley SS mouse,increased
same,P50,Berkeley SS mouse; hypoxic conditions,decreased
same,Maximum-fold Activation,wt-PKR [1],<2.0 fold
same,"PK linearity, multiple doses","healthy volunteers [2]; 100-300 mg BID, 400 mg QD",linear PK was observed across all dose levels
same,Serious adverse events / AEs leading to withdrawal,"healthy volunteers [2]; MAD cohorts 200-600 mg total daily, 14 days",No serious adverse events (SAEs) or AEs leading to withdrawal were reported
same,"2,3-DPG, Mean Maximum Percent Change from Baseline",healthy volunteers [2]; [9],−56.3%
same,"ATP, Mean Maximum Percent Change from Baseline",healthy volunteers [2]; [9],68.5%
same,Median reduction of P50,"healthy volunteers [2]; after 14 days of twice daily dosing, all dose levels",−3-5 mmHg
same,Blood ATP levels relative to baseline,"healthy volunteers [2]; day 14, remained so 60 hours after the last dose",elevated
same,"Exposure over time, multiple doses",healthy volunteers [2]; up to day 14,"remained steady up to day 14, without cumulative effect"
same,Maximum-fold Activation,PKR-R510Q [3],<3.0 fold
same,Exposure versus dose,"Balb/c mice; mice, oral",increased in a dose-proportional manner
same,Adverse clinical signs,"Balb/c mice; oral QD×7, both studies",No adverse clinical signs were observed
same,Body weight change,"Balb/c mice; oral QD×7, both studies",no differences in body weight change compared with the vehicle group
same,Tolerability,"Balb/c mice; oral QD×7, up to 240 mg/kg, both studies",well tolerated up to the highest dose tested
same,Vmax,PKR-R510Q [4]; 30 μM FBP,1.29
same,Vmax,PKR-R510Q [4]; No FBP,1.56
same,Effect on Vmax,PKR-R510Q [4]; PKR-R510Q,no effect to a modest increase
same,Reduction of PEP Km,"PKR-R510Q [4]; PKR-R510Q, presence or absence of FBP",~2 fold
same,"Time of maximum decrease in 2,3-DPG levels after the first dose",healthy volunteers [5]; SAD cohorts,~24 h
same,Serious adverse events / AEs leading to withdrawal,healthy volunteers [5]; SAD cohorts 200-1000 mg,No serious adverse events (SAEs) or AEs leading to withdrawal were reported
same,"2,3-DPG, Mean Maximum Percent Change from Baseline",healthy volunteers [5]; [10],−46.8%
same,"ATP, Mean Maximum Percent Change from Baseline",healthy volunteers [5]; [10],24.4%
same,"Median reduction in the concentration of 2,3-DPG relative to baseline","healthy volunteers [5]; all dose levels, 24 hours after single dose",at least 30%
same,Single dose exposure versus dose,healthy volunteers [5]; doses ≥700 mg,increased in greater than dose-proportional manner
same,"Time of pharmacodynamic maximum (minimum of 2,3-DPG concentration)",healthy volunteers [5]; single dose 400 mg,~24 h
same,Time of pharmacokinetic maximum (maximum of the PK curve),healthy volunteers [5]; single dose 400 mg,1 to 2 h
same,Vmax,wt-PKR [6]; 30 μM FBP,1.16
same,Vmax,wt-PKR [6]; No FBP,1.14
same,Effect on Vmax,wt-PKR [6]; wt-PKR,no effect to a modest increase
same,Reduction of PEP Km,"wt-PKR [6]; wt-PKR, presence or absence of FBP",~2 fold
same,EC50,wt-PKR [7]; mean of replicates,< 125 nM
same,Max − Min (%),wt-PKR [7]; single replicates,<125% and <150% and <100% and <50%
same,"Max − Min (%), Mean",PKR; mean of replicates,<100%
same,Max − Min (%),PKR; single replicates,<50% and <100%
same,AC50,PKR-R510Q [8],≤ 100 nM

# From US12053458B2, “Treating sickle cell disease with a pyruvate kinase R activating compound” (Novo Nordisk Health Care AG, priority 2018, dated 2024)
